Results published in patent US20170209417A1, “POLYCOMPLEX GEL FOR TREATING DISEASES OF INTESTINAL/DIGESTIVE TRACT” (priority 2014, published 2017).

Assays:
[1] = system: allergic agglutinating autoantibodies; details: in vivo, iv
rabbits = details: rabbit, in vivo
Procedure: Besides, it is necessary to point out that the claimed polycomplex gel is characterized by the absence of allergenic properties. Considering the fact that nowadays, an obligatory stage of a new medicine study is the evaluation of the allergenicity thereof, the claimed polycomplex gel has passed a verification on the basis of the Arthus-Sakharov test. For this purpose, six rabbits of both sexes weighting from 2.0 to 2.5 kg were injected with thymogen under sterile conditions subcutaneously on one side of the back with the dose of 10 mg/kg in 1.0 ml of sodium chloride isotonic solution and 1 ml of hors serum subcutaneously into the back on the other side. The rabbits of the control group were injected, instead of thymogen, with 1 ml of sodium chloride isotonic solution. The injections of thymogen and of horse serum were repeated for 6 times with a 5-6 days' interval.

Titer growth of allergic agglutinating autoantibodies [1]: not accompanied by any titer growth | Allergenicity (conclusion, standard methods) (rabbits): not allergenic
Substance: thymogen
